Measured values taken from US20050165033A1, “Use of indole-3-acetic acids in the treatment of asthma, copd and other diseases” (priority 2002, published 2005).

The molecules below were run against T1, CRTh2 receptor (Homo sapiens, UniProt Q9Y5Y4) (assay: Intracellular calcium mobilisation (FLIPr, fluo-3AM), inhibition of the response to PGD2 in HEK-hrCRTh2-Gα16 cells). Conditions: antagonist affinity vs PGD2, pIC50 Cheng-Prusoff analysis, read-out: pA2 (converted).
T1 construct: expressed in transfected cells
T1 sequence (Q9Y5Y4 1-395): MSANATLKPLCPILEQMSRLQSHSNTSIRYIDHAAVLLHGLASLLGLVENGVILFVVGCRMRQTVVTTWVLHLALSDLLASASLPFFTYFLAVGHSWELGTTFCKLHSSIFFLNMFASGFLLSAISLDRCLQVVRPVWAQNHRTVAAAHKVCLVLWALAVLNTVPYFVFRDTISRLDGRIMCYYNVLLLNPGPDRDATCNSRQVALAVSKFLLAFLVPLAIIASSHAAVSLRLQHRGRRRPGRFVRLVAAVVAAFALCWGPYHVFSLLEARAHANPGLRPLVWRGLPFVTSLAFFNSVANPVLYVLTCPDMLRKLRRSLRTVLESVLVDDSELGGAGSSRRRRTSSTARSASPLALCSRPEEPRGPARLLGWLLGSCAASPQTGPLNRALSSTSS
Assay type: cell-based
Method: Pharmacological Data—Intracellular Calcium Mobilisation
Human Embryonic Kidney Cells co-transfected with both the CRTh2 receptor and […] G-protein (HEK-hrCRTh2-G[…]16) are routinely cultured as monolayers in Dulbecco's Modified Eagles Medium (DMEM; Sigma) supplemented with 10% (v:v) heat inactivated foetal bovine serum (New Zealand sourced; Hyclone), 1% (v:v) non-essential amino acids (Gibco BRL), 1% (v:v) penicillin/streptomycin (Gibco BRL), 2 mM L-glutamine (Gibco BRL) and grown under 1 mg/ml […] Geneticin (Gibco BRL) antibiotic selection. Approximately 24 hours prior to the assay the cells are plated at a seeding density of 100,000 cells/well in 100 µl growth media into black walled 96 well Poly-D-Lysine coated plates (Becton Dickinson), with clear bottoms to allow cell inspection and fluorescence measurements from the bottom of each well. All cultures are maintained under standard tissue culture conditions (37° C. in a humidified atmosphere of 5% CO2).
To enable changes in intracellular calcium levels to be measured in HEK-hrCRTh2-Gα16 cells fluo-3AM is utilised as the fluorescent calcium indicator. A dye loading buffer is prepared which consists of a final concentration of 5 µM Fluo-3AM fluorescent cytoplasmic calcium indicator dye (Tef Labs), 2.2 µl/ml Pluronic F127 (Molecular Probes) to promote dye uptake, and 0.5 mM brilliant black (Sigma) to reduce background fluorescence in Balanced Salt Solution (BSS; 125 mM NaCl, 5.4 mM KCl, 16.2 mM NaHCO3, 0.8 mM MgCl2, 1 mM CaCl2, 20 mM HEPES, 1 mM NaH2PO4, 5.5 mM D-(+)-Glucose, 0.1% BSA and pH 7.4 with NaOH). […]
Test compounds are made up at a stock concentration of 10 mM in DMSO. The compounds to be evaluated are then prepared, by serial dilution in BSS buffer, to the required concentrations for inhibition dose response curves to be constructed. […] This allows the potency agonist (p[A]50) value to be determined for the HEK-hrCRTh2-Gα16 cells on any given day. Once the p[A]50 for PGD2 has been determined a separate assay plate containing 2×p[A]50 of PGD2 is prepared as the 2nd addition plate (or agonist plate). […]

Row | Kb | SMILES
1 | 1000 nM | COc1ccc2c(c1)c(CC(=O)O)c(C)n2-c1ncnc2c(Cl)cc(Cl)cc12 [1-(6,8-dichloro-4-quinazolinyl)-5-methoxy-2-methyl-1H-indole-3-acetic acid]
2 | 1580 nM | Cc1c(CC(=O)O)c2ccccc2n1-c1ncnc2cc(Cl)ccc12 [1-(7-chloro-4-quinazolinyl)-2-methyl-1H-indole-3-acetic acid]
3 | 158 nM | Cc1c(CC(=O)O)c2cc(C(C)C)ccc2n1-c1ncnc2cc(Cl)ccc12 [1-(7-chloro-4-quinazolinyl)-2-methyl-5-(1-methylethyl)-1H-indole-3-acetic acid]
